We go through two compounds from patent publication EP0229966A1, “Process for the control of weeds in useful plant cultures and means for performing the process” (SIEGFRIED AKTIENGESELLSCHAFT, priority 1985, dated 1987).

Data set [1] relates to Raps. Briefly: Greenhouse pot test, spray directly after sowing, crop tolerance (Tabelle I). In kind it is in vivo. From the text: (§1) Der Tabelle 1 liegen orientierende Versuche zugrunde, welche im klimatisierten Gewächshaus durchgeführt wurden, wobei 7 repräsentative Unkraut- arten und als Beispiel einer Kulturpflanze Raps benützt wurden. Unmittelbar nach dem Beschicken der Kunststofftöpfe mit dem Saatgut wurde (abge-
(§2) sehen von der unbehandelt bleibenden Kontrollserie) je eine Serie behandelt durch Aufsprühen einer wässrigen Suspension bzw. Emulsion, welche als Herbizid entweder nur den Aktivstoff I oder II in unterschiedlicher Menge oder beide Stoffe kombiniert in unterschiedlichen Mengen und Mengenverhältnissen enthielt. Die eingesetzten Aktivstoff-Mengen wurden umgerechnet auf die Aufwändmengen in Gramm Wirkstoff pro Hektar. Die Effekte wurden innert vier Wochen mehrmals begutachtet und protokolliert.
(§3) Die in der Tabelle I enthaltenen Wirkungsangaben wurden nach der Bonitierungs-Skala des European Weed Research Council (EWRC) bestimmt, wobei hier sowohl für Unkräuter wie auch für Kulturpflanze der Wert 1 der völligen Abtötung und der Wert 9 der völligen Wirkungslosigkeit zugeordnet wurde: […]

Data set [2] has as its system 7 repräsentative Unkraut- arten. Briefly: Greenhouse pot test, spray directly after sowing, EWRC rating, weeds (Tabelle I). In kind it is in vivo. Particulars: EWRC scale, 1 = völlige Abtötung, 9 = völlige Wirkungslosigkeit.
Description: as §1, §2, §3

For data set [3], the system named is Chenopodium album ("CHEAL"). Kind of data set: Field trial, Swiss Mittelland, percent weed control from plant counts (Tabelle II). In kind it is in vivo, Chenopodium album L. The following applies: four weeks after treatment. An excerpt: Die Tabelle II zeigt Resultate von Versuchen, die im Freien, nämlich im schweizerischen Mittelland auf mittelschwerem sandigem Lehmboden durchgeführt wurden. Die hier wiedergegebenen Werte sind Prozent-Zahlen, die errechnet wurden aufgrund der Formel [formula] wobei AK die Individuenzahl der jeweiligen Unkraut-Art pro Flächeneinheit der unbehandelten Kontrollparzelle und AB die entsprechende Individuenzahl pro Flächeneinheit der jeweiligen behandelten Partelle bedeutet. Die Ermittlung der Wirkung erfolgte vier Wochen nach Behandlung.

The subject of data set [4] is Maus. The following applies: cited from earlier work.
Data set [5] concerns Ratte. Particulars: cited from earlier work.

As to `CCN(CC)C(=O)SCc1ccccc1Cl` [Aktivstoff I, S-(2-Chlorbenzyl)-N,N-diethyl-thiocarbamat], in data set [1] (2000 g/ha Aktivstoff I alone), the “Schädigung Raps” value was “deutlich geschädigt”. In addition, in data set [2] (4000 g/ha Aktivstoff I alone), the “Durchschnittswert (EWRC) gegenüber den 7 Unkraut-Arten” value is given as 3,5. Further, the “Wirkung auf Chenopodium album” value in data set [3] (4000 g/ha Aktivstoff I alone) is on record as 87%. In addition, the “LD 50 p.o.” value in data set [4] is given as approximately 1850 mg/kg.
Regarding `Cc1cccc(C)c1N(Cn1cccn1)C(=O)CCl` [Aktivstoff II, N-(2,6-Dimethylphenyl)-N-(1-pyrazolylmethyl)-chloracetamid], the “Schädigung Raps” value in data set [1] (500 g/ha Aktivstoff II alone) is given as “deutlich geschädigt”. For the same compound, the “Durchschnittswert (EWRC) gegenüber den 7 Unkraut-Arten” value in data set [2] (1000 g/ha Aktivstoff II alone) is reported as 5,5. For the same compound, the “Wirkung auf Chenopodium album” value in data set [3] (1000 g/ha Aktivstoff II alone) is 91%. In addition, the “LD 50 p.o.” value in data set [5] is 2150 mg/kg.
